36 molecules from patent US10383880B2 (Reset Therapeutics, Inc., priority 2012, dated 2019) can be followed below.

pEC50: −log10 of the molar value.

This experiment relates to Per2-dLuc U2OS reporter cells. In words: Per2 assay for evaluating the potency of test compounds (high-throughput circadian assay). It is filed as cell-based. The conditions noted are these: Homo sapiens, U2OS, stable U2OS reporter cells harboring Per2-dLuc; luminescence monitored over 4-5 days at 35° C. The procedure: Compounds were screened by using a high-throughput circadian assay system as previously described in Zhang, E. E. et al. Cell, 2009, 139, 199-210. In brief, stable U2OS reporter cells harboring Per2-dLuc were plated at a density of 8,000 cells/well in Corning 96-well, solid white, flat bottom, TC-treated microplates (Corning®), and incubated for 24 hours at 37° C. in the presence of 5% CO2. The cells were then synchronized by serum shock by media exchange to a minimal explant media (10 mM HEPES (pH 7.0), 2% B27, 1×PSG (Invitrogen®), and 1.0 mM beetle luciferin (Promega®)) followed by the addition of the compounds of formula I dissolved in dimethylsulfoxide (0.5% final dimethylsulfoxide concentration). Gene expression was monitored by measuring luminescence (TecanR M200) over 4-5 days at 35° C. The period, amplitude, and phase of the associated circadian rhythms were determined using Multicycle™ software (Actimetrics, Inc). EC50 values of the compounds of formula I were calculated using Graphpad™ (Prism®).
With `CC1CN(CC(O)Cn2c3ccc(F)cc3c3cc(F)ccc32)S(=O)(=O)C1` (stereo not drawn) [Compound 194, 2-(3-(3,6-Difluoro-9H-carbazol-9-yl)-2-hydroxypropyl)-4-methylisothiazolidine-1,1-dioxide], the negative-log EC50 (pEC50) is 7.11.

In the case of `CC(O)(CN(C1(C)CCC1)S(C)(=O)=O)Cn1c2ccc(F)cc2c2cc(F)ccc21` (stereo not drawn) [Compound 187, N-(3-(3,6-Difluoro-9H-carbazol-9-yl)-2-hydroxy-2-methylpropyl)-N-(1-methylcyclobutyl)methanesulfonamide], the pEC50 was 5.56. The value for `CS(=O)(=O)N(CC(O)Cn1c2ccccc2c2ccccc21)c1ccc2cn[nH]c2c1` (stereo not drawn) [Compound 78, N-(3-(9H-Carbazol-9-yl)-2-hydroxypropyl)-N-(1H-indazol-6-yl)methanesulfonamide] was 5.20. For `CC(C)N(CC(O)Cn1c2cc(F)ccc2c2ccc(F)cc21)S(C)(=O)=O` (stereo not drawn) [Compound 159, N-(3-(2,7-Difluoro-9H-carbazol-9-yl)-2-hydroxypropyl)-N-isopropylmethanesulfonamide] the value was 6.30; for `O=S1(=O)Cc2ccccc2N1CC(O)Cn1c2ccccc2c2ccccc21` (stereo not drawn) [Compound 36, N-(3-(9H-Carbazol-9-yl)-2-hydroxypropyl)-1,3-dihydrobenzo[c]isothiazole 2,2-dioxide], 6.27. The value for `COC1CN(CC(C)(O)Cn2c3ccc(F)cc3c3cc(F)ccc32)S(=O)(=O)C1` (stereo not drawn) [Compound 182, 2-(3-(3,6-Difluoro-9H-carbazol-9-yl)-2-hydroxy-2-methylpropyl)-4-methoxyisothiazolidine-1,1-dioxide] was 6.62; that for `O=S(=O)(CC1CC1)N(Cc1ccco1)CC(O)Cn1c2ccccc2c2ccccc21` (stereo not drawn) [Compound 15, N-(3-(9H-Carbazol-9-yl)-2-hydroxypropyl)-1-cyclopropyl-N-(furan-2-ylmethyl)methanesulfonamide] was 6.23; that for `CC(C)N1CCN(CC(C)(O)Cn2c3ccc(F)cc3c3cc(F)ccc32)S1(=O)=O` (stereo not drawn) [Compound 225] was 5.51.

Molecule `CS(=O)(=O)N(CC(O)Cn1c2ccccc2c2ccccc21)c1ccccc1` (stereo not drawn) [Compound 23, N-(3-(9H-Carbazol-9-yl)-2-hydroxypropyl)-N-phenylmethanesulfonamide] had a pEC50 of 7.05. The value for `CC1(C)CC1N(CC(O)Cn1c2ccccc2c2ccccc21)S(C)(=O)=O` (stereo not drawn) [Compound 132, N-(3-(9H-Carbazol-9-yl)-2-hydroxypropyl)-N-(2,2-dimethylcyclopropyl)methanesulfonamide] was 6.46. The value for `CC(O)(CN1CCCS1(=O)=O)Cn1c2ccc(F)cc2c2cc(F)ccc21` (stereo not drawn) [Compound 115, 2-(3-(3,6-Difluoro-9H-carbazol-9-yl)-2-hydroxy-2-methylpropyl)-isothiazolidine-1,1-dioxide] was 6.63. `CCN1CCCN(CC(C)(O)Cn2c3ccc(F)cc3c3cc(F)ccc32)S1(=O)=O` (stereo not drawn) [Compound 227, 2-(3-(3,6-Difluoro-9H-carbazol-9-yl)-2-hydroxy-2-methylpropyl)-6-ethyl-1,2,6-thiadiazinane-1,1-dioxide]: the pEC50 is 5.28. The value for `CCCS(=O)(=O)N(Cc1ccco1)CC(O)Cn1c2ccccc2c2ccccc21` (stereo not drawn) [Compound 3, N-(3-(9H-Carbazol-9-yl)-2-hydroxypropyl)-N-(furan-2-ylmethyl)propane-1-sulfonamide] was 6.19; that for `O=S(=O)(c1cn[nH]c1)N(Cc1ccco1)CC(O)Cn1c2ccccc2c2ccccc21` (stereo not drawn) [Compound 5, N-(3-(9H-Carbazol-9-yl)-2-hydroxypropyl)-N-(furan-2-ylmethyl)-1H-pyrazole-4-sulfonamide] was 5.09; that for `O=S(=O)(CC1CCOC1)N(Cc1ccco1)CC(O)Cn1c2ccccc2c2ccccc21` (stereo not drawn) [Compound 17, N-(3-(9H-Carbazol-9-yl)-2-hydroxypropyl)-N-(furan-2-ylmethyl)-1-(tetrahydrofuran-3-yl)methanesulfonamide] was 5.60. The value for `CC(O)(Cn1c2ccc(F)cc2c2cc(F)ccc21)C(C)(C)N1CCCS1(=O)=O` (stereo not drawn) [Compound 245, 2-(4-(3,6-Difluoro-9H-carbazol-9-yl)-3-hydroxy-2,3-dimethylbutan-2-yl)-isothiazolidine-1,1-dioxide] was 5.94; that for `O=S1(=O)CCCN1CC(O)Cn1c2cc(F)ccc2c2ccc(F)cc21` (stereo not drawn) [Compound 92, N-(3-(2,7-Difluoro-9H-carbazol-9-yl)-2-hydroxypropyl)-isothiazolidine-1,1-dioxide] was 7.40; that for `CC1CC(N(CC(O)Cn2c3ccc(F)cc3c3cc(F)ccc32)S(C)(=O)=O)C1` (stereo not drawn) [Compound 190, N-(3-(3,6-Difluoro-9H-carbazol-9-yl)-2-hydroxypropyl)-N-(3-methylcyclobutyl)methanesulfonamide] was 6.68. For `CC1(C)CCC(N(CC(O)Cn2c3ccccc3c3ccccc32)S(C)(=O)=O)CC1` (stereo not drawn) [Compound 141, N-(3-(9H-Carbazol-9-yl)-2-hydroxypropyl)-N-(4,4-dimethylcyclohexyl)methanesulfonamide] the value was 6.07.

On to `O=S1(=O)N(CC(O)Cn2c3ccc(F)cc3c3cc(F)ccc32)CCN1C1CCCC1` (stereo not drawn) [Compound 231], for which the negative-log EC50 (pEC50) is 5.82. In turn, `COc1cccc(N(CC(O)Cn2c3ccccc3c3ccccc32)S(C)(=O)=O)c1` (stereo not drawn) [Compound 73, N-(3-(9H-Carbazol-9-yl)-2-hydroxypropyl)-N-(3-methoxyphenyl)methanesulfonamide] showed a negative-log EC50 (pEC50) of 5.52. For `CCCN(CC(O)Cn1c2cc(F)ccc2c2ccc(F)cc21)S(C)(=O)=O` (stereo not drawn) [Compound 157, N-(3-(2,7-Difluoro-9H-carbazol-9-yl)-2-hydroxypropyl)-N-propylmethanesulfonamide] the value was 6.05; for `CS(=O)(=O)N(CC(O)Cn1c2ccccc2c2ccccc21)C1CCCc2ccccc21` (stereo not drawn) [Compound 47, N-(3-(9H-Carbazol-9-yl)-2-hydroxypropyl)-N-(1,2,3,4-tetrahydronaphthalen-1-yl)methanesulfonamide], 5.47; for `CCN1CCCN(CC(O)Cn2c3ccc(F)cc3c3cc(F)ccc32)S1(=O)=O` (stereo not drawn) [Compound 226, 2-(3-(3,6-Difluoro-9H-carbazol-9-yl)-2-hydroxypropyl)-6-ethyl-1,2,6-thiadiazinane-1,1-dioxide], 6.50. `CS(=O)(=O)N(CC(O)Cn1c2ccc(F)cc2c2cc(F)ccc21)c1ccc(-n2cccn2)cc1` (stereo not drawn) [Compound 213, N-(4-(1H-Pyrazol-1-yl)phenyl)-N-(3-(3,6-difluoro-9H-carbazol-9-yl)-2-hydroxypropyl)methanesulfonamide] had a pEC50 of 5.53. For `CS(=O)(=O)N(CC(O)Cn1c2ccccc2c2ccccc21)c1ccc(C#N)cc1` (stereo not drawn) [Compound 80, N-(3-(9H-Carbazol-9-yl)-2-hydroxypropyl)-N-(4-cyanophenyl)methanesulfonamide] the value was 5.37. As for `CS(=O)(=O)CCN(CC(O)Cn1c2ccccc2c2ccccc21)S(C)(=O)=O` (stereo not drawn) [Compound 55, N-(3-(9H-Carbazol-9-yl)-2-hydroxypropyl)-N-(2-(methylsulfonyl)ethyl)methanesulfonamide], the negative logarithm of the EC50 (pEC50) is 5.64. For `CS(=O)(=O)N(CC(O)Cn1c2cc(F)ccc2c2ccc(F)cc21)C1CC1` (stereo not drawn) [Compound 161, N-Cyclopropyl-N-(3-(2,7-difluoro-9H-carbazol-9-yl)-2-hydroxypropyl)methanesulfonamide] the value was 5.94; for `CC(=O)N1CCC(N(CC(O)Cn2c3ccccc3c3ccccc32)S(C)(=O)=O)CC1` (stereo not drawn) [Compound 59, N-(3-(9H-Carbazol-9-yl)-2-hydroxypropyl)-N-(1-acetylpiperidin-4-yl)methanesulfonamide], 5.02.

For `CCN(CC(O)Cn1c2ccccc2c2ccccc21)S(C)(=O)=O` (stereo not drawn) [Compound 45, N-(3-(9H-Carbazol-9-yl)-2-hydroxypropyl)-N-ethylmethanesulfonamide], the pEC50 is 6.40. For `COCCN(CC(O)Cn1c2ccc(F)cc2c2cc(F)ccc21)S(C)(=O)=O` (stereo not drawn) [Compound 90, N-(3-(3,6-Difluoro-9H-carbazol-9-yl)-2-hydroxypropyl)-N-(2-methoxyethyl)methanesulfonamide] the value was 6.39. For `O=S(=O)(Cc1ccccc1)N(Cc1ccco1)CC(O)Cn1c2ccccc2c2ccccc21` (stereo not drawn) [Compound 14, N-(3-(9H-Carbazol-9-yl)-2-hydroxypropyl)-N-(furan-2-ylmethyl)-1-phenylmethanesulfonamide] the value was 6.19; for `CCCN(CC(O)Cn1c2ccc(F)cc2c2cc(F)ccc21)S(C)(=O)=O` (stereo not drawn) [Compound 153, N-(3-(3,6-Difluoro-9H-carbazol-9-yl)-2-hydroxypropyl)-N-propylmethanesulfonamide], 6.40; for `O=S1(=O)CCc2ccccc2N1CC(O)Cn1c2ccccc2c2ccccc21` (stereo not drawn) [Compound 37, N-(3-(9H-Carbazol-9-yl)-2-hydroxypropyl)-3,4-dihydro-1H-benzo[c][1,2]thiazine 2,2-dioxide], 7.47. The value for `O=S1(=O)C(F)CCCN1CC(O)Cn1c2ccccc2c2ccccc21` (stereo not drawn) [Compound 121, 2-(3-(9H-Carbazol-9-yl)-2-hydroxypropyl)-6-fluoro-1,2-thiazinane-1,1-dioxide] was 7.29. Turning to `CS(=O)(=O)N(CC(O)Cn1c2ccc(F)cc2c2cc(F)ccc21)C1CCC1` (stereo not drawn) [Compound 119, N-Cyclobutyl-N-(3-(3,6-difluoro-9H-carbazol-9-yl)-2-hydroxypropyl)methanesulfonamide], the pEC50 was 7.43.
